# Experiments:
# [1] = system: DU-145; test: NCI-60 antiproliferative screen (SRB); assay type: cell-based, human; settings: Homo sapiens; 10 µM single dose, 48 h; DU-145 (Prostate); read-out: Growth inhibition (%)
# [2] = system: LOX IMVI; test: NCI-60 antiproliferative screen (SRB); assay type: cell-based, human; settings: Homo sapiens; 10 µM single dose, 48 h; LOX IMVI (Melanoma); read-out: Growth inhibition (%)
# [3] = system: 786-0; test: NCI-60 antiproliferative screen (SRB); assay type: cell-based, human; settings: Homo sapiens; 10 µM single dose, 48 h; 786-0 (Renal); read-out: Growth inhibition (%)
# [4] = system: NCI-60 human cancer cell lines; test: NCI-60 screen, full panel summary; assay type: cell-based; settings: 10 µM single dose; for Mean Growth Percent: all NCI-60 cell lines
# Method: In a comprehensive test, compounds were assayed at a single dose concentration (10^−5 M) in the full panel of NCI-60 cancer cell lines.
# [5] = system: SF-295; test: NCI-60 antiproliferative screen (SRB); assay type: cell-based, human; settings: Homo sapiens; 10 µM single dose, 48 h; SF-295 (CNS); read-out: Growth inhibition (%)
# [6] = system: OVCAR-8; test: NCI-60 antiproliferative screen (SRB); assay type: cell-based, human; settings: Homo sapiens; 10 µM single dose, 48 h; OVCAR-8 (Ovarian); read-out: Growth inhibition (%)
# [7] = system: HCT-116; test: NCI-60 antiproliferative screen (SRB); assay type: cell-based, human; settings: Homo sapiens; 10 µM single dose, 48 h; HCT-116 (Colon); read-out: Growth inhibition (%)
# [8] = system: MOLT-4; test: NCI-60 antiproliferative screen (SRB); assay type: cell-based; settings: Homo sapiens; 10 µM single dose, 48 h; MOLT-4 (Leukemia); read-out: Growth inhibition (%)
# [9] = system: MDA-MB-468; test: NCI-60 antiproliferative screen (SRB); assay type: cell-based, human; settings: Homo sapiens; 10 µM single dose, 48 h; MDA-MB-468 (Breast); read-out: Growth inhibition (%)
# [10] = system: HL-60(TB); test: NCI-60 antiproliferative screen (SRB); assay type: cell-based, human; settings: Homo sapiens; 10 µM single dose, 48 h; HL-60(TB) (Leukemia); read-out: Growth inhibition (%)
# [11] = system: HCT-15; test: NCI-60 antiproliferative screen (SRB); assay type: cell-based, human; settings: Homo sapiens; 10 µM single dose, 48 h; HCT-15 (Colon); read-out: Growth inhibition (%)
# [12] = system: SW-620; test: NCI-60 antiproliferative screen (SRB); assay type: cell-based, human; settings: Homo sapiens; 10 µM single dose, 48 h; SW-620 (Colon); read-out: Growth inhibition (%)
# [13] = system: SK-MEL-2; test: NCI-60 antiproliferative screen (SRB); assay type: cell-based, human; settings: Homo sapiens; 10 µM single dose, 48 h; SK-MEL-2 (Melanoma); read-out: Growth inhibition (%)
# [14] = system: A549/ATCC; test: NCI-60 antiproliferative screen (SRB); assay type: cell-based, human; settings: Homo sapiens; 10 µM single dose, 48 h; A549/ATCC (NSCLC); read-out: Growth inhibition (%)
# [15] = system: K-562; test: NCI-60 antiproliferative screen (SRB); assay type: cell-based, human; settings: Homo sapiens, K562; 10 µM single dose, 48 h; K-562 (Leukemia); read-out: Growth inhibition (%)
# [16] = system: PC-3; test: NCI-60 antiproliferative screen (SRB); assay type: cell-based, human; settings: Homo sapiens; 10 µM single dose, 48 h; PC-3 (Prostate); read-out: Growth inhibition (%)
# [17] = system: HS 578T; test: NCI-60 antiproliferative screen (SRB); assay type: cell-based, human; settings: Homo sapiens; 10 µM single dose, 48 h; HS 578T (Breast); read-out: Growth inhibition (%)
# [18] = system: OVCAR-3; test: NCI-60 antiproliferative screen (SRB); assay type: cell-based, human; settings: Homo sapiens; 10 µM single dose, 48 h; OVCAR-3 (Ovarian); read-out: Growth inhibition (%)
# [19] = system: HT29; test: NCI-60 antiproliferative screen (SRB); assay type: cell-based, human; settings: Homo sapiens, HT-29; 10 µM single dose, 48 h; HT29 (Colon); read-out: Growth inhibition (%)
# [20] = system: NCI-H226; test: NCI-60 antiproliferative screen (SRB); assay type: cell-based, human; settings: Homo sapiens; 10 µM single dose, 48 h; NCI-H226 (NSCLC); read-out: Growth inhibition (%)
# [21] = system: MDA-MB-435; test: NCI-60 antiproliferative screen (SRB); assay type: cell-based, human; settings: Homo sapiens; 10 µM single dose, 48 h; MDA-MB-435 (Melanoma); read-out: Growth inhibition (%)
# [22] = system: NCI-H322M; test: NCI-60 antiproliferative screen (SRB); assay type: cell-based, human; settings: Homo sapiens; 10 µM single dose, 48 h; NCI-H322M (NSCLC); read-out: Growth inhibition (%)
# [23] = system: SN12C; test: NCI-60 antiproliferative screen (SRB); assay type: cell-based, human; settings: Homo sapiens; 10 µM single dose, 48 h; SN12C (Renal); read-out: Growth inhibition (%)
# [24] = system: HCC-2998; test: NCI-60 antiproliferative screen (SRB); assay type: cell-based, human; settings: Homo sapiens; 10 µM single dose, 48 h; HCC-2998 (Colon); read-out: Growth inhibition (%)
# [25] = system: CAKI-1; test: NCI-60 antiproliferative screen (SRB); assay type: cell-based, human; settings: Homo sapiens; 10 µM single dose, 48 h; CAKI-1 (Renal); read-out: Growth inhibition (%)
# [26] = system: SF-539; test: NCI-60 antiproliferative screen (SRB); assay type: cell-based, human; settings: Homo sapiens; 10 µM single dose, 48 h; SF-539 (CNS); read-out: Growth inhibition (%)
# [27] = system: MALME-3M; test: NCI-60 antiproliferative screen (SRB); assay type: cell-based, human; settings: Homo sapiens; 10 µM single dose, 48 h; MALME-3M (Melanoma); read-out: Growth inhibition (%)
# [28] = system: SNB-75; test: NCI-60 antiproliferative screen (SRB); settings: Homo sapiens, SNB-75, 48 h, read-out: Growth inhibition (%)
# Method: Anticancer activity was tested against 60 cancer cell lines (NCI-60) after 48h treatments with a single dosage of 10 μM of compounds by using sulforhodamine B assay [39] on the traditional 96-well platform. […] The human cancer cell lines of the NCI-60 panel are grown in RPMI 1640 medium supplemented with 5% FBS (fetal bovine serum) and 2 mM L-glutamine. […] For further analysis of promising compounds, five dose screens were performed against the NCI-60 panel. Drug treatments are performed in 5 doses using 10-fold or ½ log dose dilutions.
# [29] = system: BT-549; test: NCI-60 antiproliferative screen (SRB); assay type: cell-based, human; settings: Homo sapiens; 10 µM single dose, 48 h; BT-549 (Breast); read-out: Growth inhibition (%)
smiles,measurement,setting,value
"O=C1Nc2ccccc2C1=Cc1ccc(OCc2ccncc2)cc1 (mixture of isomers) [Compound 5m, (E/Z)-3-[4-(Pyridin-4-ylmethoxy)benzylidene] indolin-2-one]",inhibition at 10 µM,[1],33.7%
same,inhibition at 10 µM,[2],41.4%
same,inhibition at 10 µM,[3],14.6%
same,Positive Cytostatic Effect (cell lines with percent growth from 0 to 50 / total number of cell lines),[4],14/59
same,Positive Cytotoxic Effect (cell lines with percent growth of <0 / total number of cell lines),[4],0/59
same,Sensitive/Total Cell Lines,[4],14/59
same,The Most Sensitive Cell Line,[4],MDA-MB-468
same,number of cell lines with cytostatic effects,[4],14
same,Mean Growth Percent,[4],38.04
same,inhibition at 10 µM,[5],58.3%
same,inhibition at 10 µM,[6],35%
same,inhibition at 10 µM,[7],40.5%
same,inhibition at 10 µM,[8],78.5%
same,inhibition at 10 µM,[9],91.1%
same,inhibition at 10 µM,[10],55.3%
same,inhibition at 10 µM,[11],62.3%
same,inhibition at 10 µM,[12],22%
same,inhibition at 10 µM,[13],27.2%
same,inhibition at 10 µM,[14],34.5%
same,inhibition at 10 µM,[15],62.7%
same,inhibition at 10 µM,[16],46%
same,inhibition at 10 µM,[17],17.9%
same,inhibition at 10 µM,[18],21.5%
same,inhibition at 10 µM,[19],11.2%
same,inhibition at 10 µM,[20],42.4%
same,inhibition at 10 µM,[21],49.6%
same,inhibition at 10 µM,[22],20.9%
same,inhibition at 10 µM,[23],21.4%
same,inhibition at 10 µM,[24],20.6%
same,inhibition at 10 µM,[25],45.6%
same,inhibition at 10 µM,[26],24.9%
same,inhibition at 10 µM,[27],17.4%
same,inhibition at 10 µM,[28],35.2%
"O=C1Nc2ccccc2C1=Cc1ccc(OCc2cccnc2)cc1 (mixture of isomers) [Compound 5i, (E/Z)-3-[4-(Pyridin-3-ylmethoxy)benzylidene]indolin-2-one]",inhibition at 10 µM,[1],39.8%
same,inhibition at 10 µM,[2],55%
same,inhibition at 10 µM,[3],17.2%
same,Positive Cytostatic Effect (cell lines with percent growth from 0 to 50 / total number of cell lines),[4],17/56
same,Positive Cytotoxic Effect (cell lines with percent growth of <0 / total number of cell lines),[4],0/56
same,Sensitive/Total Cell Lines,[4],17/56
same,The Most Sensitive Cell Line,[4],KM12
same,Mean Growth Percent,[4],34.95
same,inhibition at 10 µM,[5],31.2%
same,inhibition at 10 µM,[6],47.2%
same,inhibition at 10 µM,[7],56.5%
same,inhibition at 10 µM,[8],70%
same,inhibition at 10 µM,[9],51.2%
same,inhibition at 10 µM,[10],49.9%
same,inhibition at 10 µM,[29],53.2%
same,inhibition at 10 µM,[11],60.5%
same,inhibition at 10 µM,[12],19.9%
same,inhibition at 10 µM,[13],24.1%
same,inhibition at 10 µM,[14],26.2%
same,inhibition at 10 µM,[15],75.9%
same,inhibition at 10 µM,[16],29.8%
same,inhibition at 10 µM,[17],17.6%
same,inhibition at 10 µM,[18],-9.24%
same,inhibition at 10 µM,[19],32.7%
same,inhibition at 10 µM,[20],38.2%
same,inhibition at 10 µM,[21],60.9%
same,inhibition at 10 µM,[23],27.1%
same,inhibition at 10 µM,[24],-2.08%
same,inhibition at 10 µM,[25],56.7%
same,inhibition at 10 µM,[26],36.2%
same,inhibition at 10 µM,[28],-1.11%
"O=C1Nc2ccc(F)cc2C1=Cc1ccc(OCc2cccnc2)cc1 (mixture of isomers) [Compound 5j, (E/Z)-5-Fluoro-3-[4-(pyridin-3-ylmethoxy)benzylidene]indolin-2-one]",inhibition at 10 µM,[1],46.1%
same,inhibition at 10 µM,[2],76.9%
same,inhibition at 10 µM,[3],24.2%
same,Positive Cytostatic Effect (cell lines with percent growth from 0 to 50 / total number of cell lines),[4],32/56
same,Positive Cytotoxic Effect (cell lines with percent growth of <0 / total number of cell lines),[4],1/56
same,Sensitive/Total Cell Lines,[4],33/56
same,The Most Sensitive Cell Line,[4],SK-MEL-5
same,number of cell lines with cytostatic effects,[4],32
same,number of cell lines with cytotoxic effects,[4],1
same,Mean Growth Percent,[4],53.95
same,inhibition at 10 µM,[5],54.8%
same,inhibition at 10 µM,[6],65.1%
same,inhibition at 10 µM,[7],84.7%
same,inhibition at 10 µM,[8],88.5%
same,inhibition at 10 µM,[9],58.5%
same,inhibition at 10 µM,[10],81.7%
same,inhibition at 10 µM,[29],65.7%
same,inhibition at 10 µM,[11],84.8%
same,inhibition at 10 µM,[12],70.1%
same,inhibition at 10 µM,[13],50.4%
same,inhibition at 10 µM,[14],39.4%
same,inhibition at 10 µM,[15],86.1%
same,inhibition at 10 µM,[16],43.6%
same,inhibition at 10 µM,[17],37.4%
same,inhibition at 10 µM,[18],9.05%
same,inhibition at 10 µM,[19],84.1%
same,inhibition at 10 µM,[20],55.6%
same,inhibition at 10 µM,[21],98.3%
same,inhibition at 10 µM,[23],46.1%
same,inhibition at 10 µM,[24],23.4%
same,inhibition at 10 µM,[25],67.6%
same,inhibition at 10 µM,[26],63.3%
same,inhibition at 10 µM,[28],-5.67%
"O=C1Nc2ccc(Cl)cc2C1=Cc1ccc(OCc2cccnc2)cc1 (mixture of isomers) [Compound 5k, (E/Z)-5-Chloro-3-[4-(pyridin-3-ylmethoxy)benzylidene] indolin-2-one]",inhibition at 10 µM,[1],0.75%
same,inhibition at 10 µM,[2],10.1%
same,inhibition at 10 µM,[3],1.47%
same,Positive Cytostatic Effect (cell lines with percent growth from 0 to 50 / total number of cell lines),[4],5/56
same,Positive Cytotoxic Effect (cell lines with percent growth of <0 / total number of cell lines),[4],0/56
same,Sensitive/Total Cell Lines,[4],5/56
same,Mean Growth Percent,[4],14.49
same,inhibition at 10 µM,[5],4.51%
same,inhibition at 10 µM,[6],23.4%
same,inhibition at 10 µM,[7],34.6%
same,inhibition at 10 µM,[8],52.6%
same,inhibition at 10 µM,[9],12.5%
same,inhibition at 10 µM,[10],14.8%
same,inhibition at 10 µM,[29],14.5%
same,inhibition at 10 µM,[11],46.5%
same,inhibition at 10 µM,[12],2.62%
same,inhibition at 10 µM,[13],0.36%
same,inhibition at 10 µM,[14],16.1%
same,inhibition at 10 µM,[15],38.8%
same,inhibition at 10 µM,[16],24.3%
same,inhibition at 10 µM,[17],3.67%
same,inhibition at 10 µM,[18],-10.9%
same,inhibition at 10 µM,[19],18.1%
same,inhibition at 10 µM,[20],11.8%
same,inhibition at 10 µM,[21],29.3%
same,inhibition at 10 µM,[23],9.17%
same,inhibition at 10 µM,[24],-9.21%
same,inhibition at 10 µM,[25],51%
same,inhibition at 10 µM,[26],20.2%
same,inhibition at 10 µM,[28],-10.2%

# — article PMC11124822, “Discovery and Anticancer Screening of Novel Oxindole-Based Derivative Bearing Pyridyl Group as Potent and Selective Dual FLT3/CDK2 Kinase Inhibitor” (Pharmaceuticals, 2024)
